Experimental data from US9738634B2, “Heterocyclic amide compound and herbicide” (SYNGENTA PARTICIPATIONS AG, priority 2013, dated 2017).

Columns and labels:
Format in all cases: in vivo
barnyard grass [1] = test: Test Example 1: weedkilling efficacy, preemergent weed treatment in the submerged state; A: barnyard grass; conditions: treatment dosage 252 g/ha
Procedure, shortened: (§1)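 Pre-emergence paddy test: weed seeds sown in submerged alluvial soil (4 cm water), 2.5-leaf rice transplanted, water-diluted emulsion applied to water surface at sowing at stated g/ha. Scored at 3 weeks, greenhouse 25–30 °C.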

bulrush [2] = test: Test Example 1: weedkilling efficacy, preemergent weed treatment in the submerged state; B: bulrush; conditions: treatment dosage 252 g/ha
Procedure, shortened: as §1

oval-leafed pondweed [3] = test: Test Example 1: weedkilling efficacy, preemergent weed treatment in the submerged state; C: oval-leafed pondweed; conditions: treatment dosage 252 g/ha
Procedure, shortened: as §1

transplanted rice = test: Test Example 1: preemergent weed treatment in the submerged state, effect on crop; a: transplanted rice; conditions: treatment dosage 252 g/ha
Procedure, shortened: as §1

barnyard grass [4] = test: Test Example 2: weedkilling efficacy, growth period weed treatment in the submerged state; A: barnyard grass; conditions: treatment dosage 252 g/ha
Procedure, shortened: (§2)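 Seedlings at 1-2 leaves in 4 cm-deep submerged alluvial soil received emulsion formulations on the water surface, dosed per hectare; effects were judged 3 weeks on.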

bulrush [5] = test: Test Example 2: weedkilling efficacy, growth period weed treatment in the submerged state; B: bulrush; conditions: treatment dosage 252 g/ha
Procedure, shortened: as §2

oval-leafed pondweed [6] = test: Test Example 2: weedkilling efficacy, growth period weed treatment in the submerged state; C: oval-leafed pondweed; conditions: treatment dosage 252 g/ha
Procedure, shortened: as §2

crabgrass [7] = test: Test Example 3: weedkilling efficacy through soil treatment; D: crabgrass; conditions: treatment dosage 315 g/ha
Procedure, shortened: (§3)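 Crop and weed responses were judged three weeks after a uniform surface spray of the water-diluted emulsion at the given g/ha rate. Seeds sat beneath about 1.5 cm of sterilized diluvial soil, and boxes stood in a greenhouse at 25 to 30° C.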

green foxtail [8] = test: Test Example 3: weedkilling efficacy through soil treatment; E: green foxtail; conditions: treatment dosage 315 g/ha
Procedure, shortened: as §3

wild oat [9] = test: Test Example 3: weedkilling efficacy through soil treatment; G: wild oat; conditions: treatment dosage 315 g/ha
Procedure, shortened: as §3

black-grass [10] = test: Test Example 3: weedkilling efficacy through soil treatment; H: black-grass; conditions: treatment dosage 315 g/ha
Procedure, shortened: as §3

Italian ryegrass [11] = test: Test Example 3: weedkilling efficacy through soil treatment; I: Italian ryegrass; conditions: treatment dosage 315 g/ha
Procedure, shortened: as §3

Indian mallow [12] = test: Test Example 3: weedkilling efficacy through soil treatment; K: Indian mallow; conditions: treatment dosage 315 g/ha
Procedure, shortened: as §3

redroot pigweed [13] = test: Test Example 3: weedkilling efficacy through soil treatment; L: redroot pigweed; conditions: treatment dosage 315 g/ha
Procedure, shortened: as §3

fig-leafed goosefoot [14] = test: Test Example 3: weedkilling efficacy through soil treatment; M: fig-leafed goosefoot; conditions: treatment dosage 315 g/ha
Procedure, shortened: as §3

chickweed [15] = test: Test Example 3: weedkilling efficacy through soil treatment; N: chickweed; conditions: treatment dosage 315 g/ha
Procedure, shortened: as §3

catchweed [16] = test: Test Example 3: weedkilling efficacy through soil treatment; O: catchweed; conditions: treatment dosage 315 g/ha
Procedure, shortened: as §3

birds-eye speedwell = test: Test Example 3: weedkilling efficacy through soil treatment; p: birds-eye speedwell; conditions: treatment dosage 315 g/ha
Procedure, shortened: as §3

directly sown rice [17] = test: Test Example 3: soil treatment, effect on crop; b: directly sown rice; conditions: treatment dosage 315 g/ha
Procedure, shortened: as §3

corn [18] = test: Test Example 3: soil treatment, effect on crop; c: corn; conditions: treatment dosage 315 g/ha
Procedure, shortened: as §3

soybean [19] = test: Test Example 3: soil treatment, effect on crop; d: soybean; conditions: treatment dosage 315 g/ha
Procedure, shortened: as §3

wheat [20] = test: Test Example 3: soil treatment, effect on crop; e: wheat; conditions: treatment dosage 315 g/ha
Procedure, shortened: as §3

beet [21] = test: Test Example 3: soil treatment, effect on crop; f: beet; conditions: treatment dosage 315 g/ha
Procedure, shortened: as §3

crabgrass [22] = test: Test Example 4: weedkilling efficacy by foliar treatment; D: crabgrass; conditions: treatment dosage 315 g/ha
Procedure, shortened: (§4)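 Seeds are spot-sown into sterilized diluvial soil and covered with about 1.5 cm of soil. After 14 days' greenhouse growth at 25 to 30° C, plants are sprayed on stems and leaves with diluted emulsion at the stated g/ha rate, then scored at 3 weeks.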

green foxtail [23] = test: Test Example 4: weedkilling efficacy by foliar treatment; E: green foxtail; conditions: treatment dosage 315 g/ha
Procedure, shortened: as §4

wild oat [24] = test: Test Example 4: weedkilling efficacy by foliar treatment; G: wild oat; conditions: treatment dosage 315 g/ha
Procedure, shortened: as §4

black-grass [25] = test: Test Example 4: weedkilling efficacy by foliar treatment; H: black-grass; conditions: treatment dosage 315 g/ha
Procedure, shortened: as §4

Italian ryegrass [26] = test: Test Example 4: weedkilling efficacy by foliar treatment; I: Italian ryegrass; conditions: treatment dosage 315 g/ha
Procedure, shortened: as §4

Indian mallow [27] = test: Test Example 4: weedkilling efficacy by foliar treatment; K: Indian mallow; conditions: treatment dosage 315 g/ha
Procedure, shortened: as §4

redroot pigweed [28] = test: Test Example 4: weedkilling efficacy by foliar treatment; L: redroot pigweed; conditions: treatment dosage 315 g/ha
Procedure, shortened: as §4

fig-leafed goosefoot [29] = test: Test Example 4: weedkilling efficacy by foliar treatment; M: fig-leafed goosefoot; conditions: treatment dosage 315 g/ha
Procedure, shortened: as §4

chickweed [30] = test: Test Example 4: weedkilling efficacy by foliar treatment; N: chickweed; conditions: treatment dosage 315 g/ha
Procedure, shortened: as §4

catchweed [31] = test: Test Example 4: weedkilling efficacy by foliar treatment; O: catchweed; conditions: treatment dosage 315 g/ha
Procedure, shortened: as §4

directly sown rice [32] = test: Test Example 4: foliar treatment, effect on crop; b: directly sown rice; conditions: treatment dosage 315 g/ha
Procedure, shortened: as §4

corn [33] = test: Test Example 4: foliar treatment, effect on crop; c: corn; conditions: treatment dosage 315 g/ha
Procedure, shortened: as §4

soybean [34] = test: Test Example 4: foliar treatment, effect on crop; d: soybean; conditions: treatment dosage 315 g/ha
Procedure, shortened: as §4

wheat [35] = test: Test Example 4: foliar treatment, effect on crop; e: wheat; conditions: treatment dosage 315 g/ha
Procedure, shortened: as §4

beet [36] = test: Test Example 4: foliar treatment, effect on crop; f: beet; conditions: treatment dosage 315 g/ha
Procedure, shortened: as §4

Structure (SMILES): CC1=C(c2ccccc2)C(=O)N(C(C)(C)C(=O)Nc2cc(C(F)(F)F)ccn2)CO1 [B-2-57]
- A (barnyard grass) weedkilling efficacy grade (barnyard grass [1]): 5 (weed kill ratio 90% or more, (practically complete withering))
- B (bulrush) weedkilling efficacy grade (bulrush [2]): 5 (weed kill ratio 90% or more, (practically complete withering))
- C (oval-leafed pondweed) weedkilling efficacy grade (oval-leafed pondweed [3]): 5 (weed kill ratio 90% or more, (practically complete withering))
- a (transplanted rice) effect on crop grade (transplanted rice): 4 (weed kill ratio 70% or more, less than 90%)
- A (barnyard grass) weedkilling efficacy grade (barnyard grass [4]): 5 (weed kill ratio 90% or more, (practically complete withering))
- B (bulrush) weedkilling efficacy grade (bulrush [5]): 5 (weed kill ratio 90% or more, (practically complete withering))
- C (oval-leafed pondweed) weedkilling efficacy grade (oval-leafed pondweed [6]): 5 (weed kill ratio 90% or more, (practically complete withering))
- D (crabgrass) weedkilling efficacy grade (crabgrass [7]): 5 (weed kill ratio 90% or more, (practically complete withering))
- E (green foxtail) weedkilling efficacy grade (green foxtail [8]): 5 (weed kill ratio 90% or more, (practically complete withering))
- G (wild oat) weedkilling efficacy grade (wild oat [9]): 5 (weed kill ratio 90% or more, (practically complete withering))
- H (black-grass) weedkilling efficacy grade (black-grass [10]): 5 (weed kill ratio 90% or more, (practically complete withering))
- I (Italian ryegrass) weedkilling efficacy grade (Italian ryegrass [11]): 5 (weed kill ratio 90% or more, (practically complete withering))
- K (Indian mallow) weedkilling efficacy grade (Indian mallow [12]): 5 (weed kill ratio 90% or more, (practically complete withering))
- L (redroot pigweed) weedkilling efficacy grade (redroot pigweed [13]): 5 (weed kill ratio 90% or more, (practically complete withering))
- M (fig-leafed goosefoot) weedkilling efficacy grade (fig-leafed goosefoot [14]): 4 (weed kill ratio 70% or more, less than 90%)
- N (chickweed) weedkilling efficacy grade (chickweed [15]): 4 (weed kill ratio 70% or more, less than 90%)
- O (catchweed) weedkilling efficacy grade (catchweed [16]): 5 (weed kill ratio 90% or more, (practically complete withering))
- P (birds-eye speedwell) weedkilling efficacy grade (birds-eye speedwell): 5 (weed kill ratio 90% or more, (practically complete withering))
- b (directly sown rice) effect on crop grade (directly sown rice [17]): 5 (weed kill ratio 90% or more, (practically complete withering))
- c (corn) effect on crop grade (corn [18]): 4 (weed kill ratio 70% or more, less than 90%)
- d (soybean) effect on crop grade (soybean [19]): 4 (weed kill ratio 70% or more, less than 90%)
- e (wheat) effect on crop grade (wheat [20]): 0 (weed kill ratio 5% or less (practically no effect))
- f (beet) effect on crop grade (beet [21]): 3 (weed kill ratio 40% or more, less than 70%)
- D (crabgrass) weedkilling efficacy grade (crabgrass [22]): 5 (weed kill ratio 90% or more, (practically complete withering))
- E (green foxtail) weedkilling efficacy grade (green foxtail [23]): 5 (weed kill ratio 90% or more, (practically complete withering))
- G (wild oat) weedkilling efficacy grade (wild oat [24]): 5 (weed kill ratio 90% or more, (practically complete withering))
- H (black-grass) weedkilling efficacy grade (black-grass [25]): 5 (weed kill ratio 90% or more, (practically complete withering))
- I (Italian ryegrass) weedkilling efficacy grade (Italian ryegrass [26]): 5 (weed kill ratio 90% or more, (practically complete withering))
- K (Indian mallow) weedkilling efficacy grade (Indian mallow [27]): 5 (weed kill ratio 90% or more, (practically complete withering))
- L (redroot pigweed) weedkilling efficacy grade (redroot pigweed [28]): 5 (weed kill ratio 90% or more, (practically complete withering))
- M (fig-leafed goosefoot) weedkilling efficacy grade (fig-leafed goosefoot [29]): 3 (weed kill ratio 40% or more, less than 70%)
- N (chickweed) weedkilling efficacy grade (chickweed [30]): 3 (weed kill ratio 40% or more, less than 70%)
- O (catchweed) weedkilling efficacy grade (catchweed [31]): 5 (weed kill ratio 90% or more, (practically complete withering))
- b (directly sown rice) effect on crop grade (directly sown rice [32]): 5 (weed kill ratio 90% or more, (practically complete withering))
- c (corn) effect on crop grade (corn [33]): 5 (weed kill ratio 90% or more, (practically complete withering))
- d (soybean) effect on crop grade (soybean [34]): 4 (weed kill ratio 70% or more, less than 90%)
- e (wheat) effect on crop grade (wheat [35]): 1 (weed kill ratio 5% or more, less than 20%)
- f (beet) effect on crop grade (beet [36]): 3 (weed kill ratio 40% or more, less than 70%)
